Legend:
[1] = target: T1, Human CD73 (amino acid residues 27-549) (Homo sapiens, UniProt P21589); assay: CD73 enzymatic assay (luciferase-based indirect assay, CellTiter-Glo); format: biochemical; conditions: 0.4 nM CD73, 150 μM AMP, 1 hour at room temperature
T1 construct: Human CD73 (amino acid residues 27-549); His tag (N); made in house; host or cells: E. coli
T1 sequence (P21589 27-549): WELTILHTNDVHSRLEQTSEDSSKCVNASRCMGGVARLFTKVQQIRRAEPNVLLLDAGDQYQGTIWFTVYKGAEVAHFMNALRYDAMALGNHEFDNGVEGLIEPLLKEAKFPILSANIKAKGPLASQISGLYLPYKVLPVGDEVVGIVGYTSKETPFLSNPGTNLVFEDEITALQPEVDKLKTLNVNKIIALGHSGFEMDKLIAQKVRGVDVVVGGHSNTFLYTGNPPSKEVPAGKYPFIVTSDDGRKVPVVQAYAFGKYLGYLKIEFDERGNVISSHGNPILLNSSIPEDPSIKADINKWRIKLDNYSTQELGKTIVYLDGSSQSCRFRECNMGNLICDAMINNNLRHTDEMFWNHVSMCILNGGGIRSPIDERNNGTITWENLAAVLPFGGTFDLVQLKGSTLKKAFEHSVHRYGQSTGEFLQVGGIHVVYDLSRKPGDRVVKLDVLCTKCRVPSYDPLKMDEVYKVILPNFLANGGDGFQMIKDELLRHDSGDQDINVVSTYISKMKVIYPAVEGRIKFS
Procedure, shortened: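 Luciferase-coupled readout: AMP left after CD73 turnover suppresses CellTiter-Glo signal (1 μM ATP final, 30 min RT). Reaction beforehand: 150 μM AMP, 0.4 nM E. coli-made His-tagged CD73 residues 27-549, test compound, HEPES pH 7.4 with Tween-20, 1 h RT. % inhibition fitted nonlinearly for IC50.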

human CD73 = target: T2, human CD73 (Homo sapiens, UniProt P21589); assay: Inhibitor activity against CD73 in cell based assay (CD73 expressing CHO-K1 cells); conditions: CHO-K1 cells expressing human CD73, 150 μM AMP, 4 hours of incubation; read-out: CHO-K1 CELL_VARIANT: CD73 IC50
T2 construct: expressed in transfected cells
T2 sequence (P21589 27-549): T1 sequence (P21589 27-549)
Procedure, shortened: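 AMP (150 μM) was added alongside 8 titrated compound doses (maximum 10 μM, 1:3 steps) to CHO-K1 cells stably expressing human CD73. After 4 h, supernatant AMP was measured indirectly with CellTiter-Glo 2.0 plus 1 μM ATP (30 min, RT). % inhibition versus high and low controls was fitted nonlinearly for IC50.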

SMILES	IC50 [1] [µM]	IC50 (human CD73) [µM]
CCCNS(=O)(=O)c1ccc(-c2ccnc(O[C@@H]3CCN(c4cn[nH]c(=O)c4Cl)C3)c2)c(C)c1 [P-0240, (R)-4-(2-((1-(5-chloro-6-oxo-1,6-dihydropyridazin-4-yl)pyrrolidin-3-yl)oxy)pyridin-4-yl)-3-methyl-N-propylbenzenesulfonamide]	0.001 to 10	0.001 to 10
O=c1[nH]ncc(N2CC[C@@H](Oc3cc(-c4ccc(S(=O)(=O)Nc5ccc(F)cc5)cc4)ccn3)C2)c1Cl [P-0241, (R)-4-(2-((1-(5-chloro-6-oxo-1,6-dihydropyridazin-4-yl)pyrrolidin-3-yl)oxy)pyridin-4-yl)-N-(4-fluorophenyl)benzenesulfon-amide]	0.001 to 10	0.001 to 10
CCCCNS(=O)(=O)c1ccc(-c2ccnc(O[C@@H]3CCN(c4cn[nH]c(=O)c4Cl)C3)c2)cc1 [P-0242, (R)-N-butyl-4-(2-((1-(5-chloro-6-oxo-1,6-dihydropyridazin-4-yl)pyrrolidin-3-yl)oxy)pyridin-4-yl)benzenesulfonamide]	0.001 to 10	0.001 to 10
O=c1[nH]ncc(N2CC[C@@H](Oc3cc(-c4ccc(NS(=O)(=O)C5CC5)cc4)ccn3)C2)c1Cl [P-0245, (R)-N-(4-(2-((1-(5-chloro-6-oxo-1,6-dihydropyridazin-4-yl)pyrrolidin-3-yl)oxy)pyridin-4-yl)phenyl)cyclopropanesulfon-amide]	0.001 to 10	0.001 to 10
O=c1[nH]ncc(N2CC[C@@H](Oc3cc(-n4cccc4)ccn3)C2)c1Cl [P-0252, (R)-5-(3-((4-(1H-pyrrol-1-yl)pyridin-2-yl)oxy)pyrrolidin-1-yl)-4-chloropyridazin-3(2H)-one]	0.001 to 10	0.001 to 10
N#Cc1cc(O[C@@H]2CCN(c3cn[nH]c(=O)c3Cl)C2)nc(N2CCCC2)c1 [P-0253, (R)-2-((1-(5-chloro-6-oxo-1,6-dihydropyridazin-4-yl)pyrrolidin-3-yl)oxy)-6-(pyrrolidin-1-yl)isonicotinonitrile]	0.001 to 10	10 to 100

The next lines start with the values.

IC50 [1] [µM]	IC50 (human CD73) [µM]	SMILES
0.001 to 10	0.001 to 10	CCNS(=O)(=O)c1ccc(-c2ccnc(O[C@@H]3CCN(c4cn[nH]c(=O)c4Cl)C3)c2)cc1 [P-0243, (R)-4-(2-((1-(5-chloro-6-oxo-1,6-dihydropyridazin-4-yl)pyrrolidin-3-yl)oxy)pyridin-4-yl)-N-ethylbenzenesulfonamide]
0.001 to 10	0.001 to 10	CNS(=O)(=O)c1ccc(-c2ccnc(O[C@@H]3CCN(c4cn[nH]c(=O)c4Cl)C3)c2)cc1 [P-0244, (R)-4-(2-((1-(5-chloro-6-oxo-1,6-dihydropyridazin-4-yl)pyrrolidin-3-yl)oxy)pyridin-4-yl)-N-methylbenzenesulfonamide]
0.001 to 10	0.001 to 10	O=c1[nH]ncc(N2CC[C@@H](Oc3cc(-c4ccc(S(=O)(=O)N5CCCC5)cc4)ccn3)C2)c1Cl [P-0246, (R)-4-chloro-5-(3-((4-(4-(pyrrolidin-1-ylsulfonyl)phenyl)pyridin-2-yl)oxy)pyrrolidin-1-yl)pyridazin-3(2H)-one]
0.001 to 10	0.001 to 10	O=c1[nH]ncc(N2CC[C@@H](Oc3cc(-c4ccc(S(=O)(=O)NC5CC5)cc4)ccn3)C2)c1Cl [P-0247, (R)-4-(2-((1-(5-chloro-6-oxo-1,6-dihydropyridazin-4-yl)pyrrolidin-3-yl)oxy)pyridin-4-yl)-N-cyclopropylbenzenesulfonamide]
0.001 to 10	0.001 to 10	O=c1[nH]ncc(N2CC[C@@H](Oc3cc(-c4ccc(S(=O)(=O)N5CCCC5)cc4)c(Cl)cn3)C2)c1Cl [P-0248, (R)-4-chloro-5-(3-((5-chloro-4-(4-(pyrrolidin-1-ylsulfonyl)phenyl)pyridin-2-yl)oxy)pyrrolidin-1-yl)pyridazin-3(2H)-one]
0.001 to 10	0.001 to 10	O=c1[nH]ncc(N2CC[C@@H](Oc3cc(-c4ccc(S(=O)(=O)N5CCCCC5)cc4)c(Cl)cn3)C2)c1Cl [P-0249, (R)-4-chloro-5-(3-((5-chloro-4-(4-(piperidin-1-ylsulfonyl)phenyl)pyridin-2-yl)oxy)pyrrolidin-1-yl)pyridazin-3(2H)-one]
0.001 to 10	0.001 to 10	O=c1[nH]ncc(N2CC[C@@H](Oc3cc(-c4ccc(S(=O)(=O)NC5CC5)cc4)c(Cl)cn3)C2)c1Cl [P-0251, (R)-4-(5-chloro-2-((1-(5-chloro-6-oxo-1,6-dihydropyridazin-4-yl)pyrrolidin-3-yl)oxy)pyridin-4-yl)-N-cyclopropylbenzenesulfonamide]
